Patent US20100298137A1, “ACTIVE INGREDIENT COMBINATIONS WITH INSECTICIDAL PROPERTIES” (BAYER CROPSCIENCE AG, priority 2006, published 2010)

Key:
Myzus persicae = Myzus persicae test (cabbage leaves dipped into the preparation of active compound); type: in vivo; settings: leaf dip
Text: (§1) The expected activity for a given combination of two active compounds can be calculated according to S. R. Colby, Weeds 15 (1967), 20-22 as follows:
(§2) If • X is the kill rate, expressed in % of the untreated control, when active compound A is applied at an application rate of m g/ha or at a concentration of m ppm, • Y is the kill rate, expressed in % of the untreated control, when active compound B is applied at an application rate of n g/ha or at a concentration of n ppm and • E is the kill rate, expressed in % of the untreated control, when active compounds A and B is applied at application rates of m and n g/ha or at a concentration of m and n ppm, then
(§3) If the actual kill rate is greater than calculated, the kill of the combination is superadditive, i.e. there is a synergistic effect. In this case, the actual observed kill rate has to be greater than the value for the expected kill rate (E) calculated from the formula given above.
(§4) To produce a suitable preparation of active compound, 1 part by weight of active compound is mixed with the stated amounts of solvent and emulsifier, and the concentrate is diluted with emulsifier-containing water to the desired concentration.
Cabbage leaves (Brassica oleracea) which are heavily infested by the green peach aphid (Myzus persicae) are treated by being dipped into the preparation of active compound of the desired concentration.
(§5) After the desired period of time, the kill in % is determined. 100% means that all aphids have been killed; 0% means that none of the aphids have been killed. The kill rates determined are entered into the Colby formula (see sheet 1).

Aphis gossypii = Aphis gossypii test (cotton leaves dipped into the preparation of active compound); type: in vivo; settings: leaf dip
Text: as §1, §2, §3, §4
Cotton leaves (Gossypium hirsutum) which are heavily infested by the cotton aphid (Aphis gossypii) are treated by being dipped into the preparation of active compound of the desired concentration.
as §5

CC(C)N1C(=O)N(c2ccccc2)CS/C1=N\C(C)(C)C [buprofezin]
Kill in % after 1 d (Myzus persicae; 100 ppm): 0% | Kill in % after 1 d (Aphis gossypii; 100 ppm): 5%

N#Cc1nn(-c2c(Cl)cc(C(F)(F)F)cc2Cl)c(N)c1[S+]([O-])C(F)(F)F (centres unmarked) [fipronil]
Kill in % after 6 d (Myzus persicae; 4 ppm): 0% | Kill in % after 6 d (Aphis gossypii; 20 ppm): 70%

COc1cccc(C(=O)NN(C(=O)c2cc(C)cc(C)c2)C(C)(C)C)c1C [methoxyfenozide]
Kill in % after 1 d (Myzus persicae; 100 ppm): 0% | Kill in % after 1 d (Aphis gossypii; 100 ppm): 0%

FC(F)(F)c1ccc(OCCCOc2c(Cl)cc(OCC=C(Cl)Cl)cc2Cl)nc1 [pyridalyl]
Kill in % after 6 d (Myzus persicae; 100 ppm): 0% | Kill in % after 1 d (Aphis gossypii; 100 ppm): 5%

O=C1C=C(N(Cc2ccc(Cl)nc2)C2CC2)CO1 [compound (Ib)]
Kill in % after 6 d (Myzus persicae; 0.16 ppm): 0% | Kill in % after 1 d (Myzus persicae; 0.8 ppm): 10% | Kill in % after 1 d (Myzus persicae; 4 ppm): 70% | Kill in % after 6 d (Myzus persicae; 4 ppm): 33% | Kill in % after 6 d (Aphis gossypii; 0.16 ppm): 0% | Kill in % after 1 d (Aphis gossypii; 0.8 ppm): 45% | Kill in % after 6 d (Aphis gossypii; 0.8 ppm): 50% | Kill in % after 1 d (Aphis gossypii; 4 ppm): 80%

CNC(=O)c1cc(Cl)cc(C)c1NC(=O)c1cc(Br)nn1-c1ncccc1Cl [rynaxapyr, 3-bromo-N-{4-chloro-2-methyl-6-[(methylamino)carbonyl]phenyl}-1-(3-chloropyridin-2-yl)-1H-pyrazole-5-carboxamide]
Kill in % after 1 d (Myzus persicae; 4 ppm): 30% | Kill in % after 6 d (Aphis gossypii; 0.8 ppm): 15%

emamectin benzoate
Kill in % after 1 d (Aphis gossypii; 20 ppm): 10%

spinosad
Kill in % after 1 d (Myzus persicae; 100 ppm): 5% | Kill in % after 6 d (Myzus persicae; 100 ppm): 5%

CN(Cc1ccc(Cl)nc1)C1=CC(=O)OC1 [compound (Ia)]
Kill in % after 1 d (Myzus persicae; 0.16 ppm): 10% | Kill in % after 6 d (Myzus persicae; 0.16 ppm): 0% | Kill in % after 1 d (Myzus persicae; 0.8 ppm): 45% | Kill in % after 6 d (Myzus persicae; 0.8 ppm): 50% | Kill in % after 1 d (Aphis gossypii; 0.16 ppm): 20% | Kill in % after 1 d (Aphis gossypii; 0.8 ppm): 55%

Cc1cc(C(F)(C(F)(F)F)C(F)(F)F)ccc1NC(=O)c1cccc(I)c1C(=O)NC(C)(C)CS(C)(=O)=O [flubendiamid, flubendiamide]
Kill in % after 6 d (Myzus persicae; 100 ppm): 6%

CC[S+]([O-])c1c(C#N)nn(-c2c(Cl)cc(C(F)(F)F)cc2Cl)c1N (centres unmarked) [ethiprole]
Kill in % after 6 d (Aphis gossypii; 0.8 ppm): 30%

COC(=O)N(C(=O)N1COC2(C(=O)OC)Cc3cc(Cl)ccc3C2=N1)c1ccc(OC(F)(F)F)cc1 (centres unmarked) [indoxacarb]
Kill in % after 6 d (Myzus persicae; 100 ppm): 20% | Kill in % after 1 d (Aphis gossypii; 100 ppm): 0%

abamectin
Kill in % after 1 d (Myzus persicae; 100 ppm): 55%
